Experimental findings from patent US20260274955A1, “ANTIBODIES FOR TARGETING CD28 AND USES THEREOF” (Janux Therapeutics, Inc., priority 2023, published 2026) are described below.

This assay has as its system Ab-1. The assay is described as follows: Kinetic binding via BLI (Octet): Ab-1 binding to peptide-loaded sensors. More on the design: species or system human. Conditions: Table 15, 100 nM Ab-1. As for the experimental part:
Kinetic binding of the peptides of Table 1 to Ab-1 was evaluated using biolayer interferometry (BLI). Briefly, biotinylated peptides were loaded onto a streptavidin coated Octet® SAX biosensor, quenched in biocytin, and baselined in buffer. Ab-1 was titrated in solution and associated onto the peptide loaded sensor. After a short association period, sensors were transferred into buffer and the dissociation of bound Ab-1 was measured. Association and dissociation signals were recorded in real time and analyzed using a 1:1 binding model within the instrument software. Analysis using a 1:1 binding model enabled the calculation of the on and off rate constants as well as affinity, KD.
On the technique in general: In BLI a coated tip is dipped into the sample, and binding shifts an interference pattern.

Turning to Met(O)-DWCPRDLWVHCFA [Peptide-20], the “Octet signal (20 nM peptide)” value came out at 0.1733.
As to Met(O)2-DWCPRDLWVHCFA [Peptide-21], the “Octet signal (20 nM peptide)” value is reported as 0.4179.
